Values joined by “and” are separate entries in the source; they are usually repeats but may differ in a detail not shown here. Equal entries are not always repeated. ± gives the uncertainty stated by the source.
What was measured:
[1] = 100 kPa
[2] = xn = mol fraction of the nth substance listed

OC1CCCCCC1
[1]
Conditions | viscosity [mPa·s]
293.15 K | 68.77 ± 3.1
298.15 K | 53.6 ± 3
303.15 K | 43.34 ± 3.1
308.15 K | 35.61 ± 3.1
313.15 K | 30.84 ± 3
318.15 K | 26.6 ± 3

CCCCN + O
viscosity, [2]
Conditions | 298.15 K | 303.15 K | 308.15 K | 313.15 K | 318.15 K | 323.15 K
100 kPa, x1 = 0.1 | – | 1.869 ± 0.04 mPa·s | – | 1.43 ± 0.031 mPa·s | – | 1.133 ± 0.025 mPa·s
100 kPa, x1 = 0.2 | – | 2.115 ± 0.045 mPa·s | – | 1.604 ± 0.034 mPa·s | – | 1.25 ± 0.027 mPa·s
100 kPa, x1 = 0.3 | – | 1.933 ± 0.041 mPa·s | – | 1.462 ± 0.031 mPa·s | – | 1.143 ± 0.025 mPa·s
100 kPa, x1 = 0.4 | – | 1.597 ± 0.034 mPa·s | – | 1.234 ± 0.027 mPa·s | – | 0.979 ± 0.021 mPa·s
100 kPa, x1 = 0.5 | – | 1.273 ± 0.027 mPa·s | – | 0.996 ± 0.021 mPa·s | – | 0.808 ± 0.017 mPa·s
100 kPa, x1 = 0.6 | – | 0.993 ± 0.021 mPa·s | – | 0.796 ± 0.017 mPa·s | – | 0.654 ± 0.014 mPa·s
100 kPa, x1 = 0.7 | – | 0.786 ± 0.017 mPa·s | – | 0.649 ± 0.014 mPa·s | – | 0.547 ± 0.012 mPa·s
100 kPa, x1 = 0.8 | – | 0.626 ± 0.014 mPa·s | – | 0.533 ± 0.012 mPa·s | – | 0.453 ± 0.01 mPa·s
100 kPa, x1 = 0.9 | – | 0.541 ± 0.012 mPa·s | – | 0.454 ± 0.01 mPa·s | – | 0.393 ± 0.009 mPa·s
101.33 kPa, x1 = 0.0001 | – | 0.8019 ± 0.0053 mPa·s | 0.7212 ± 0.0048 mPa·s | 0.6564 ± 0.0045 mPa·s | 0.6007 ± 0.0042 mPa·s | 0.5542 ± 0.0039 mPa·s
101.33 kPa, x1 = 0.1 | 2.372 ± 0.019 mPa·s | 1.885 ± 0.011 mPa·s | 1.642 ± 0.01 mPa·s | 1.574 ± 0.013 mPa·s and 1.441 ± 0.0089 mPa·s | 1.278 ± 0.008 mPa·s | 1.142 ± 0.0077 mPa·s
101.33 kPa, x1 = 0.1998 | – | 2.149 ± 0.013 mPa·s | 1.861 ± 0.011 mPa·s | 1.625 ± 0.01 mPa·s | 1.433 ± 0.0089 mPa·s | 1.271 ± 0.0082 mPa·s
101.33 kPa, x1 = 0.2 | 2.685 ± 0.021 mPa·s | – | – | 1.742 ± 0.014 mPa·s | – | –
101.33 kPa, x1 = 0.2999 | – | 1.964 ± 0.012 mPa·s | 1.707 ± 0.011 mPa·s | 1.494 ± 0.0095 mPa·s | 1.318 ± 0.0085 mPa·s | 1.172 ± 0.0077 mPa·s
101.33 kPa, x1 = 0.3999 | – | 1.601 ± 0.01 mPa·s | 1.405 ± 0.0092 mPa·s | 1.242 ± 0.0082 mPa·s | 1.111 ± 0.0075 mPa·s | 0.9871 ± 0.0067 mPa·s
101.33 kPa, x1 = 0.4 | 2.006 ± 0.016 mPa·s | – | – | 1.353 ± 0.011 mPa·s | – | –
101.33 kPa, x1 = 0.5 | – | 1.259 ± 0.0087 mPa·s | 1.118 ± 0.0078 mPa·s | 0.9974 ± 0.007 mPa·s | 0.8979 ± 0.0064 mPa·s | 0.8131 ± 0.0058 mPa·s
101.33 kPa, x1 = 0.5997 | – | 0.9797 ± 0.0071 mPa·s | 0.8813 ± 0.0064 mPa·s | 0.7976 ± 0.0059 mPa·s | 0.726 ± 0.0054 mPa·s | 0.6647 ± 0.005 mPa·s
101.33 kPa, x1 = 0.6 | 1.153 ± 0.0092 mPa·s | – | – | 0.842 ± 0.0067 mPa·s | – | –
101.33 kPa, x1 = 0.7 | – | 0.7677 ± 0.0058 mPa·s | 0.701 ± 0.0054 mPa·s | 0.6419 ± 0.005 mPa·s | 0.5911 ± 0.0047 mPa·s | 0.5472 ± 0.0044 mPa·s
101.33 kPa, x1 = 0.7999 | – | 0.6277 ± 0.005 mPa·s | 0.5795 ± 0.0047 mPa·s | 0.5366 ± 0.0044 mPa·s | 0.4994 ± 0.0042 mPa·s | 0.4656 ± 0.004 mPa·s
101.33 kPa, x1 = 0.8 | 0.686 ± 0.0055 mPa·s | – | – | 0.54 ± 0.0043 mPa·s | – | –
101.33 kPa, x1 = 0.9001 | – | 0.5178 ± 0.0044 mPa·s | 0.4829 ± 0.0042 mPa·s | 0.4518 ± 0.004 mPa·s | 0.4243 ± 0.0038 mPa·s | 0.399 ± 0.0036 mPa·s

Cc1ccncc1 + O
Conditions | viscosity [mPa·s]
[2], 318.15 K, 101 kPa, x1 = 0.4 | 1.365 ± 0.013

O=C(O)[C@H](O)[C@@H](O)C(=O)O + O
[2], 298.2 K, 101.33 kPa
Conditions | viscosity [mPa·s]
x1 = 0.00125 | 0.9157 ± 0.023
x1 = 0.002751 | 0.942 ± 0.023
x1 = 0.00453 | 0.9725 ± 0.024
x1 = 0.00652 | 0.9964 ± 0.025
x1 = 0.008655 | 1.043 ± 0.026
x1 = 0.01037 | 1.046 ± 0.026
x1 = 0.01172 | 1.088 ± 0.027

O=[N+]([O-])[O-].[Ag+] + O
[2], 298.15 K, 101 kPa
Conditions | viscosity [mPa·s]
x1 = 0.02589 | 0.99 ± 0.026
x1 = 0.05251 | 1.134 ± 0.03
x1 = 0.09523 | 1.451 ± 0.038
x1 = 0.1797 | 2.439 ± 0.065

O=c1[nH]cc(F)c(=O)[nH]1 + O
[2], 298.15 K, 101.3 kPa
Conditions | viscosity [mPa·s]
x1 = 3.46e-05 | 0.8891 ± 0.018
x1 = 9.06e-05 | 0.8892 ± 0.018
x1 = 0.000191 | 0.8901 ± 0.018
x1 = 0.000303 | 0.8905 ± 0.018
x1 = 0.000519 | 0.8917 ± 0.019
x1 = 0.000754 | 0.8926 ± 0.019
x1 = 0.000864 | 0.8933 ± 0.019
x1 = 0.00108 | 0.8946 ± 0.019

[I-].[K+] + O
[2], 310.15 K, 101 kPa
Conditions | viscosity [mPa·s]
x1 = 0.000916 | 0.6942 ± 0.0061
x1 = 0.001822 | 0.6976 ± 0.0066
x1 = 0.001827 | 0.7047 ± 0.0067
x1 = 0.002695 | 0.7079 ± 0.0063
x1 = 0.003679 | 0.7155 ± 0.0064
x1 = 0.005197 | 0.7273 ± 0.0066
x1 = 0.005988 | 0.7335 ± 0.0067

CCCCN + O=C1CCCCC1
[2]
Conditions | viscosity [mPa·s]
298.15 K, 101 kPa, x2 = 0.0765 | 0.623 ± 0.005
298.15 K, 101 kPa, x2 = 0.157 | 0.754 ± 0.006
298.15 K, 101 kPa, x2 = 0.2421 | 0.903 ± 0.007
298.15 K, 101 kPa, x2 = 0.3319 | 1.06 ± 0.008
298.15 K, 101 kPa, x2 = 0.427 | 1.223 ± 0.01
298.15 K, 101 kPa, x2 = 0.5278 | 1.392 ± 0.011
298.15 K, 101 kPa, x2 = 0.6349 | 1.563 ± 0.012
298.15 K, 101 kPa, x2 = 0.7488 | 1.725 ± 0.013
298.15 K, 101 kPa, x2 = 0.8702 | 1.88 ± 0.014
303.15 K, 101.33 kPa, x1 = 0.1251 | 2.752 ± 0.075
303.15 K, 101.33 kPa, x1 = 0.2012 | 2.984 ± 0.082
303.15 K, 101.33 kPa, x1 = 0.2448 | 3.075 ± 0.084
303.15 K, 101.33 kPa, x1 = 0.3617 | 3.092 ± 0.085
303.15 K, 101.33 kPa, x1 = 0.5296 | 2.811 ± 0.077
303.15 K, 101.33 kPa, x1 = 0.6105 | 2.592 ± 0.071
303.15 K, 101.33 kPa, x1 = 0.7626 | 1.94 ± 0.053
303.15 K, 101.33 kPa, x1 = 0.887 | 1.202 ± 0.033
